The text below walks through data of publication PMC3706556 (Environmental microbiology, 2013).

The target in data set [1] is CYP125A3 (Mycolicibacterium smegmatis, UniProt A0R4Y3). The data set is described as follows: biochemical. The following applies: for Soret band position after ligand addition: CYP125A3 3 μM, ligand 50 μM, resting Soret 393 nm with shoulder at 415 nm. The class given is binding, Mycobacterium smegmatis mc2 155.
In data set [2] the target is T1, CYP142A2 (Mycolicibacterium smegmatis, UniProt A0R4Q6). Description: biochemical.
For data set [3], the target named is T1, CYP142A2. Conditions: CYP142A2 3 μM, ligand 50 μM; resting Soret 418 nm.

The structures appear in SMILES notation.

CYP125A3, sequence (A0R4Y3 whole entry): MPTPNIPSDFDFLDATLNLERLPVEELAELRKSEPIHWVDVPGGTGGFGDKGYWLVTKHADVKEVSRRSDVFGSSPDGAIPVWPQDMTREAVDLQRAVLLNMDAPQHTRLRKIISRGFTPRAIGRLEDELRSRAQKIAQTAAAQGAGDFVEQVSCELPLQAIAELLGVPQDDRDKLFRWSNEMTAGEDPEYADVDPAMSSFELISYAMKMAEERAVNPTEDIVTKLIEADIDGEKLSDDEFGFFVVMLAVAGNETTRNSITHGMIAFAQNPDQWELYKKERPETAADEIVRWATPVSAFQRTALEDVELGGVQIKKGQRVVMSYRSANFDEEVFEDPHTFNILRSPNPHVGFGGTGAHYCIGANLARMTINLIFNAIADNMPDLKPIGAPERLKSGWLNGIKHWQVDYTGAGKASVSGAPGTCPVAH
T1 sequence (A0R4Q6 whole entry): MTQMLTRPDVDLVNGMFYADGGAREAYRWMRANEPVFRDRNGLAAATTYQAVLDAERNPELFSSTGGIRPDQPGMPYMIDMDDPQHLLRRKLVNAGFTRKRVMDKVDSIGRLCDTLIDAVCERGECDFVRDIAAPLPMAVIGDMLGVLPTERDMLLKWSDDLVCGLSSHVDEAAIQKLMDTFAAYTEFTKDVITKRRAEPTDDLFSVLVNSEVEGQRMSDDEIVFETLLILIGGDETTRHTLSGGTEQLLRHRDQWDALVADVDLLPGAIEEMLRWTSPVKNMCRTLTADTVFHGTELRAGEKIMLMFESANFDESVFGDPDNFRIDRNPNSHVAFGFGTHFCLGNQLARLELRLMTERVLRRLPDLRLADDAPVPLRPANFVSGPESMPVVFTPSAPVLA

By Kd is commonly meant the equilibrium constant for the complex coming apart. For `Clc1ccccc1C(c1ccccc1)(c1ccccc1)n1ccnc1` [Clotrimazole], the Kd in data set [1] was determined as 14.5 ± 1.58 µM; in data set [2], 16.2 ± 0.75 µM.
Consider `Clc1ccc(COC(Cn2ccnc2)c2ccc(Cl)cc2Cl)cc1` (centres unmarked) [Econazole], for which the “Soret band position after ligand addition” value in data set [3] is 422 nm; in data set [1], 415 nm. Moreover, the equilibrium dissociation constant (Kd) in data set [1] came out at 7.38 ± 0.71 µM; in data set [2], 7.4 ± 0.52 µM.
As to `Clc1ccc(COC(Cn2ccnc2)c2ccc(Cl)cc2Cl)c(Cl)c1` (centres unmarked) [Miconazole], the values for the Kd in data set [1] and in data set [2] were 1.66 ± 0.21 µM and 6.58 ± 0.7 µM, respectively.
The corresponding values for `CC(C)CCC[C@@H](C)[C@H]1CC[C@H]2[C@@H]3CCC4=CC(=O)CC[C@]4(C)[C@H]3CC[C@]12C` [Cholest-4-en-3-one] are 2.3 ± 1.4 µM and 0.52 ± 0.26 µM.
Turning to `CC(C)CCC[C@@H](C)[C@H]1CC[C@H]2[C@@H]3CC=C4C[C@@H](O)CC[C@]4(C)[C@H]3CC[C@]12C` [Cholesterol], the “Soret band position after ligand addition” value in data set [3] and in data set [1] was 393 nm each time. Further, the values for the dissociation constant (Kd) in data set [1] and in data set [2] were 1.1 ± 0.5 µM and 0.14 ± 0.07 µM, respectively.
